Where only a bound is given, the exact number is not on record here.

System in the first data set: not listed separately
Put plainly: Lactone stability in whole blood (HPLC). In kind it is in vitro ADME. The conditions noted are these: 100 μM, 37°C, lactone peak area relative to zero time (100%); 180 min. On the procedure:
2. Lactone Stability in whole blood:
2 ml of blood from a healthy volunteer was collected in a tube containing 40 µl of heparin (572 IU) to prevent coagulation, 4 mM and 40 µM working solutions of the drug in DMSO were prepared and added to aliquots of whole blood to give final concentration of 100 µM and 1 µM respectively. The drug is incubated in whole blood at 37°C and 20 µl samples are collected into 180 µl of chilled methanol (-30°C) at different time intervals (0, 1, 2 & 3 hrs). Vortex and then centrifuge at 11000 rpm for 3 min in a microcentrifuge at room temperature. Dilute 100 µl of the supernatant with water to 300-500 µl depending upon the signal response (UV for 100 µM concentration and fluoroscence for 1 µM concentration) of the compound. 200 µl of the diluted sample is injected on to the HPLC column previously equilibrated with the mobile phase. The area under peak corrsponding to lactone forms is measured. Zero time peak area is taken as 100%, and the proportion of lactone peak area at different time points is calculated to determine the equilibrium lactone stability as obtained by consistent lactone proportion over two successive time points. (Biochemistry, 1994; 33:10325-10336 and J. Pharm. Sci., 1995; 84:518-519).
As for `CCOC1c2cc3c(O)cccc3nc2-c2cc3c(c(=O)n21)COC(=O)[C@]3(O)CC` (single isomer, unassigned) [Example 11 Diastereomer B, 5-Ethoxy-9-hydroxycamptothecin], the “Lactone Stability in Whole Blood (after 3 hours)” value is listed as 6.15±2.53. The same measure, in the same setting: the figure for `CC[C@@]1(O)C(=O)OCc2c1cc1n(c2=O)C(OCC(F)(F)F)c2cc3cc(O)ccc3nc2-1` (single isomer, unassigned) [Example 27 Diastereomer A, 10-Hydroxy-5-trifluoroethoxycamptothecin] is 4.58±1.72; for `CC[C@@]1(O)C(=O)OCc2c1cc1n(c2=O)C(OCC(F)(F)F)c2cc3cc(O)ccc3nc2-1` (single isomer, unassigned) [Example 27 Diastereomer B, 10-Hydroxy-5-trifluoroethoxycamptothecin] it is 11.9±2.91.

The data set is the same for the next values; noted with them: human, whole blood, 100 μM, 37°C, lactone peak area relative to zero time (100%); read-out: Lactone Stability in Whole Blood (after 3 hours).
Take `CCOC1c2cc3c(O)cccc3nc2-c2cc3c(c(=O)n21)COC(=O)[C@]3(O)CC` (single isomer, unassigned) [Example 11 Diastereomer A, 5-Ethoxy-9-hydroxycamptothecin]: the remaining at 3 h, 100 µM was 3.73 ± 1.5%.

Another data set has as its system NCI's 60 human tumor cell line assay. Put plainly: cells. Format: cell-based. The conditions noted are these: 60 cell, 48 h, read-out: IC50 (mean GI50 against NCI's 60 human tumor cell line assay).
Experimental: Each test compound was screened against a battery of 60 human cell lines obtained from eight organs. In a typical procedure, the cell suspensions that were diluted according to the particular cell type and the expected target cell density (5000-40,000 cells per well based on cell growth characteristics) were added into 96-well microtiter plates. Inoculates were allowed a preincubation period of 24h at 37°C. for stabilization. Dilutions at twice the intended test concentrations were added at time zero in 100-µl aliquots to microtiter plate wells. Usually test compounds were evaluated at five 10-fold dilutions. The highest well concentration used in the test is 10^-4M. The cells are then incubated in the presence of drug (the test compound) for further 48h in 5% CO2 atmosphere and 100% humidity. At the end of this time, the adherent cells are fixed to the plate by means of trichloroacetic acid, and after a number of washes, the cell layer is treated with the protein stain Sulforhodamine B. The optical density which is proportional to protein mass, is then read by automated spectrophotometric plate readers at a wavelength of 515 nm. Readings are transferred to a microcomputer and final reports are generated using especially developed software.
Consider `CCc1c2c(nc3ccccc13)-c1cc3c(c(=O)n1C2OCCN1CCCCC1)COC(=O)[C@]3(O)CC` (stereo partly drawn) [7-Ethyl-5-piperidinoethoxy camptothecin], for which the mean GI50 is greater than 30 µM. Still for that read-out and setting: the figure for `CCc1c2c(nc3ccccc13)-c1cc3c(c(=O)n1C2OCC(F)(F)F)COC(=O)[C@]3(O)CC` (stereo partly drawn) [7-Ethyl-5-trifluoroethoxycamptothecin] is 7.41 µM; for `CC[C@@]1(O)C(=O)OCc2c1cc1n(c2=O)C(OCCOC)c2cc3c([N+](=O)[O-])cccc3nc2-1` (stereo partly drawn) [9-Nitro-5-methoxyethoxy camptothecin] it is 2.04 µM; for `CC[C@@]1(O)C(=O)OCc2c1cc1n(c2=O)C(OC)c2cc3ccccc3nc2-1` (stereo partly drawn) [Example 1, 5-methoxycamptothecin] it is 8.5 µM.

Turning to `CCOC1c2c(nc3ccccc3c2CC)-c2cc3c(c(=O)n21)COC(=O)[C@]3(O)CC` (stereo partly drawn) [Example 3, 5-Ethoxy-7-ethylcamptothecin], the mean GI50 was determined as 1.41 µM. Still for that read-out and setting: then `CCOC1c2cc3c(OC)cccc3nc2-c2cc3c(c(=O)n21)COC(=O)[C@]3(O)CC` (stereo partly drawn) [Example 5, 5-Ethoxy-9-methoxycamptothecin], with 2.45 µM. On the same count and under the same terms, then `CCOC1c2c(nc3cccc(OC)c3c2CC)-c2cc3c(c(=O)n21)COC(=O)[C@]3(O)CC` (stereo partly drawn) [Example 7, 5-Ethoxy-9-methoxy-7-ethylcamptothecin], with 2.13 µM. Same read-out and setting: then `CCOC1c2cc3ccccc3nc2-c2cc3c(c(=O)n21)COC(=O)[C@]3(O)CC` (stereo partly drawn) [Example 9, 5-Ethoxycamptothecin], with 9.54 µM. On to `CCCCOC1c2cc3ccccc3nc2-c2cc3c(c(=O)n21)COC(=O)[C@]3(O)CC` (stereo partly drawn) [Example 10, 5-butoxycamptothecin], for which the mean GI50 stood at 6.16 µM. Same read-out and setting: then `CCOC1c2cc3cccc([N+](=O)[O-])c3nc2-c2cc3c(c(=O)n21)COC(=O)[C@]3(O)CC` (stereo partly drawn) [Example 16, 12-Nitro-5-ethoxycamptothecin], with greater than 30 µM; and `CC[C@@]1(O)C(=O)OCc2c1cc1n(c2=O)C(OC)c2cc3c(N)cccc3nc2-1` (stereo partly drawn) [Example 20, 9-amino-5-methoxycamptothecin], with 6.76 µM. For the compound `CC[C@@]1(O)C(=O)OCc2c1cc1n(c2=O)C(O)c2cc3cccc([N+](=O)[O-])c3nc2-1` (stereo partly drawn) [Example 23, 12-Nitro-5-hydroxy camptothecin], the mean GI50 was greater than 30 µM. On the same count and under the same terms, then `CC[C@@]1(O)C(=O)OCc2c1cc1n(c2=O)C(OCCCl)c2cc3ccccc3nc2-1` (stereo partly drawn) [Example 24, 5-(2'-Chloroethoxy)camptothecin], with 4.57 µM; and `CC[C@@]1(O)C(=O)OCc2c1cc1n(c2=O)C(OCCF)c2cc3ccccc3nc2-1` (stereo partly drawn) [Example 29, 5-(2'-fluoroethoxy)camptothecin], with 1.58 µM. Regarding `CCc1c2c(nc3ccccc13)-c1cc3c(c(=O)n1C2OCCF)COC(=O)[C@]3(O)CC` (stereo partly drawn) [Example 31, 5-(2'-Fluoroethoxy)-7-ethylcamptothecin], the mean GI50 came out at 4.36 µM. The same measure, in the same setting: then `CC[C@@]1(O)C(=O)OCc2c1cc1n(c2=O)C(OCCO)c2cc3cc(O)ccc3nc2-1` (stereo partly drawn) [Example 33, 5-(2'-Hydroxyethoxy)-10-hydroxycamptothecin], with 8.12 µM. Still for that read-out and setting: the figure for `CC[C@@]1(O)C(=O)OCc2c1cc1n(c2=O)C(OCCN)c2cc3ccccc3nc2-1` (stereo partly drawn) [Example 36, 5-(2'-aminoethoxy) camptothecin] is 30 µM; for `CCc1c2c(nc3ccccc13)-c1cc3c(c(=O)n1C2OCCCN(C)C)COC(=O)[C@]3(O)CC` (stereo partly drawn) [Example 38, 5-(3'-dimethylaminopropoxy)-7-ethylcamptothecin] it is greater than 30 µM. The same measure, in the same setting: then `CCc1c2c(nc3ccccc13)-c1cc3c(c(=O)n1C2OCCCl)COC(=O)[C@]3(O)CC` (stereo partly drawn) [Example 40, 5-(2'-chloroethoxy)-7-ethylcamptothecin], with 2.75 µM. `CCc1c2c(nc3ccccc13)-c1cc3c(c(=O)n1C2OCCN(C)C)COC(=O)[C@]3(O)CC` (stereo partly drawn) [Example 41, 5-(2'-dimethylaminoethoxy)-7-ethylcamptothecin]: the mean GI50 came to 13.8 µM.

For the origin of these results see patent publication EP0847397B1, “WATER-SOLUBLE C-RING ANALOGUES OF 20 (S)-CAMPTOTHECIN” (DR. REDDY'S RESEARCH FOUNDATION, priority 1996, dated 1997).
